Results from patent US12263177B2, “Biologically active ganoderma lucidum compounds and synthesis of anticancer derivatives; ergosterol peroxide probes for cellular localization” (priority 2019, dated 2025).
pEC50: −log10 of the molar value.

How the values were obtained:
SUM-149 = assay: Cytotoxicity of EP probes via CTG assay; assay type: cell-based, human; settings: 72 hr, read-out: SUM149 EC50
Method: (§1) For the CTG assay, 3 or 4 replicate assays were conducted for each experimental condition, and a minimum of 3 independent experiments were conducted for cellular assays. The mean luminescence of each experimental treatment group was normalized as a percentage of the mean intensity of untreated controls. EC50 values (μM) were calculated by Pipeline Pilot Software (Accelrys, Enterprise Platform, CA, USA). EC50 values (μM) from the viability assay were calculated from dose response curve-fitting via non-linear regression by using GraphPad Prism (Version 7.0 San Diego, CA).

[1] = system: MDA-MB-231, SUM-149, T47D; assay: Cytotoxicity of EP analogues via CTG assay, comparison across cell lines; settings: 72 hr
Method: To better understand the structure-activity-relationship of EP, its core was modified at the C3 position of the steroid backbone. […] Both normal cell lines HMEC and BJ cells were also evaluated to determine therapeutic index.
Either 1×10^3-4.8×10^3 or 4×10^2-1.2×10^3 cells were seeded to each well of 96- or 384-well white polystyrene flat-bottomed plates (3610 or 8804BC, Corning) in 100 μL or 30 μL media per well, respectively. The concentrations used were experimentally determined to ensure logarithmic growth during the duration of the experiment and prevent adverse effects on cell growth by DMSO exposure. The plates were incubated at 37° C. in 5% CO2 for 24 h before treatment. Stock solutions of test compounds (10 mM in DMSO) in nine 3-fold serial dilutions were dispensed via pintool (Biomek). The final concentration of DMSO was 0.3% (v/v) in each well. The plates were incubated for 72 h at 37° C. in 5% CO2 and then quenched with CellTiter-Glo® reagent (50 μL/well in 96-well plate, 30 μL/well in 384-well plate) at RT. The positive controls included staurosporine (10 μM), gambogic acid (10 μM), and a toxic quinoline generated in-house. Plates were then incubated at RT for 20 min and centrifuged at 1000 rpm for 1 min. The cytotoxicity assay was performed by using the CellTiterGlo Luminescent Cell Viability Assay kit (G7570, Promega, Madison, WI) according to the manufacturer's instructions. Luminescence was recorded in an Envision plate reader (Perkin Elmer).

Propidium iodide assay = assay type: cell-based
Method: Efforts to address the specific target in breast cancer cellular models are disclosed. Thus, in the present disclosure, the EP-chemical probes were generated to study subcellular co-localization in order to recover its potential mechanism in breast cancer cell models. An efficient synthetic approach to EP and its analogues from ergosterol was developed. The resultant EP compounds were evaluated for cytotoxicity/apoptosis via CellTiterGlo assay, and propidium iodide assay.

T47D = assay: Cytotoxicity of EP probes via CTG assay; assay type: cell-based; settings: 72 hr
Method: as §1

MDA-MB-231 = assay: Cytotoxicity of EP probes via CTG assay; assay type: cell-based, human; settings: 72 hr, read-out: MDA-MB231 EC50
Method: as §1

HMEC = assay: Cytotoxicity of EP probes via CTG assay, normal cells; assay type: cell-based; settings: 72 hr
Method: as §1

[2] = system: MCF-7 breast cancer cells; assay: Reactive oxygen species (ROS) measurement, CellROX; assay type: cell-based, human; settings: not statistically significant for the GLE compounds
Method: Live-cell CellROX® assays for oxidative stress detection were conducted to evaluate whether GA-01, ergosterol, 5-6-dihydroergosterol and EP trigger intrinsic apoptosis pathways by inducing ROS. […] Menadione or t-Butyl hydrogen peroxide (TBHP) were positive controls (FIGS. 7 and S5) and co-treated with N-acetyl cysteine (NAC) to confirm that the signal was due to ROS formation induced by the compound. […] Furthermore, the possibility of the endoperoxide motif to react with NAC, was assessed EP was incubated with NAC in DMSO for 24 h at 37° C. […] Thus, the ability of EP to induce ROS could potentially be via a different mechanism from that of TBHP in MCF-7 cells.
The mRuby-Mito-7 plasmid was obtained from Addgene (#55874 from Michael Davidson). A stable clone of MCF-7 was generated by using Fugene 6 (Roche) to transfect cells (2×10^5) with plasmid (2.0 μg) under neomycin selection. A stable cell line was selected by using G418 (300 μg/mL) for 2 weeks, sorted by flow cytometry, and maintained under G418 thereafter. Transfected MCF-7 cells were plated at a density of 2×10^4 cells/well in black 96-well clear bottom tissue culture plates and incubated overnight at 37° C. […] Fluorescence intensity was measured in a Clariostar® plate reader (BMG LABTECH, Cary, NC) at 535 nm.

In the case of CC(C)C(C)C=CC(C)C1CCC2C1(C)CCC1C23C=CC2(CC(OC(=O)CCCCC4SCC5NC(=O)NC54)CCC12C)OO3 (stereo not shown) [3k], the pEC50 (SUM-149) was 5.40, the “cytotoxicity compared with parental compound 3 (in words)” value [1] was “comparable cytotoxicity to the parental compound 3” and the “ability to induce apoptosis” value (Propidium iodide assay) was “validated via propidium iodide assay”. For the same molecule, the pEC50 (T47D) was under 5.00, the pEC50 (MDA-MB-231) was 5.00 and the pEC50 (HMEC) was under 4.85.
In the case of Cc1cc(C)n2c1C=C1C=CC(CCC(=O)OC3CCC4(C)C5CCC6(C)C(C(C)C=CC(C)C(C)C)CCC6C56C=CC4(C3)OO6)=[N+]1[B-]2(F)F (stereo not shown) [3m], the pEC50 (SUM-149) was 5.70, the “cytotoxicity compared with parental compound 3 (in words)” value [1] was “comparable cytotoxicity to the parental compound 3” and the “ability to induce apoptosis” value (Propidium iodide assay) was “validated via propidium iodide assay”. It also gave a pEC50 (T47D) of 4.74, a pEC50 (MDA-MB-231) of 4.74 and a pEC50 (HMEC) of under 4.82.
With CC(C)(C)OO [TBHP, t-Butyl hydroperoxide] the “ROS formation reduction when co-treated with NAC” value [2] was about 50%.
